The text below walks through data of publication PMC12817916, “A small-molecule HSP90 inhibitor, NVP-HSP990, alleviates rotavirus infection” (Journal of Virology, 2025).

Structures are written as SMILES.

One data set relates to MA104 cells. The data set is described as follows: Cytotoxicity assay (CCK-8). Type of data set: cell-based, Rhesus monkey. Particulars: MA104 cells, 24 h, CCK-8; read-out: CC50. The procedure:
To evaluate the cytotoxicity of different HSP90 inhibitors in vitro, 10,000 MA104 cells, 30,000 Caco-2 cells, and 80,000 HT-29 cells in 100 µL complete DMEM medium were seeded in 96-well plates and cultured at 37°C and 5% CO2 for 24 h to reach about 100% confluence, and a cell-free control was also set. After removing the initial medium, 100 µL of complete DMEM medium containing the indicated concentrations of drugs was added to each well, and the plates were incubated at 37°C and 5% CO2. Twenty-four hours later, the drug-containing medium was replaced with 100 µL fresh complete DMEM medium plus 10 µL 5 mM CCK-8 reagent (Beyotime, China), and OD450 absorbance of each well was detected 3 h later using a microplate reader (Gene Company Limited, China). Relative cell viability rate = OD450 (drug-treated cells − cell-free control) / OD450 (0 µM drug-treated cells − cell-free control).
The 50% cytotoxic concentration (CC50) values were determined by nonlinear regression (curve fit) analysis in GraphPad Prism 9.0 (GraphPad Software). Dose-response data (drug concentrations as X-axis and normalized cell viability percentages as Y-axis) were fitted to a Dose-response Inhibition model ("[Inhibitor] vs. normalized response-Variable slope"). The curve was constrained to a bottom limit of 0% viability. The CC50 value was automatically calculated as the X-intercept at Y=50%. Model adequacy was validated using goodness-of-fit metrics (R²≥0.95), 95% confidence intervals, and residual distribution analysis. Final CC50 values were derived from three independent biological replicates and reported as mean ± SEM.

The test system of another data set is RV SA11 strain. The data set is described as follows: RV SA11 diarrhea model in suckling mice. Conditions: for infectious RV particles and viral antigens in intestinal contents, transcription of RV VP6 in intestinal epithelial cells: compared to controls. Type of data set: in vivo, BALB/c suckling mice. The procedure: BALB/c mice were purchased from Gempharmatech Inc. (Suzhou, China) and housed under SPF conditions (22 ± 1°C, 12 h light/dark cycle). Suckling mice were obtained by mating male and female adult BALB/c mice (12- to 16-week-old). Only the 7-day-old BALB/c suckling mice with body weights ranging from 2.5 g to 4.5 g were selected for RV diarrhea models. For induction of RV diarrhea, 1 × 10^6 PFU of SA11 strain or 10 × DD50 of EDIM strain in 20 µL PBS was orally inoculated using a pipette tip to 7-day-old BALB/c suckling mice regardless of their sexes, as sex has no significant influence on RV diarrhea occurrence. We used a scoring system to evaluate fecal consistency and color as described with some modification ([27]): no stool or brown formed stool (1 point); brown soft stool (2 points); yellow soft stool (3 points); and yellow watery stool (4 points). Mice with scores of ≥2 meant diarrhea occurrence, while mice with scores of 1 meant no diarrhea. At the end of each experiment, all infected or drug-treated suckling mice were humanely euthanized via CO2 asphyxiation.
Seven-day-old BALB/c suckling mice meeting the weight criteria within each litter were randomly assigned to experimental groups. Each litter was allocated to ensure one to three suckling mice per experimental group (variations dependent on the total number of groups). Data from suckling mice assigned to the same group across multiple litters were aggregated to achieve a total sample size of n = 3–6 per experimental group. Then, the suckling mice were orally inoculated with 1 × 10^6 PFU of the SA11 strain or 10 × DD50 of the EDIM strain, or with an equal amount of PBS as mock infection. For SA11 infection, the suckling mice were orally treated once with indicated doses of drugs or with an equal volume of DMSO as control at 2 h p.i. For EDIM infection, the suckling mice were orally treated with 0.2 mg/kg/day NVP-HSP990, 30 mg/kg/day ribavirin, or an equal amount of DMSO as control from 2 days post-infection (d p.i.) to indicated time points. Diarrhea scores and body weight were monitored from day 0 to day 7 post-infection in the SA11 infection model, and from day 0 to day 9 post-diarrhea occurrence (2–11 d p.i.) in the EDIM infection model. Blinding was applied throughout data collection and analysis.
The RV-infected suckling mice were sacrificed by CO2 asphyxiation at the indicated times, and small intestines (including duodenum, jejunum, and ileum) or colon was homogenized in 0.3 mL DMEM, centrifuged at 12,000 × g for 5 min at 4°C, and the supernatant was collected. Virus contents in the supernatant were titrated with PFA as described above. Viral antigens in the supernatant were detected with enzyme-linked immunosorbent assay (ELISA) kits for RV (CUSABIO, China) following the manufacturer’s instructions. For qPCR analysis of RV protein expression, the intestines were longitudinally split and washed in 1 mL DMEM by shaking for 30 s. Then, the tissues were cut into 0.5 cm segments, incubated in Hank’s buffer containing 2.5 mM EDTA-Na2 and 1 mM dithiothreitol (Sangon Biotech, China) at 37°C with rotation at 200 rpm for 30 min, filtered with a 70 µm strainer. Then the epithelial cells were pelleted by centrifugation at 500 × g for 5 min, purified with 20% Percoll (Cytiva, Sweden), and lysed in Trizol for RNA extraction and further qPCR analysis.
The jejunum and ileum of suckling mice were fixed in 4% paraformaldehyde for 24 h, washed with PBS twice, and then subjected to paraffin embedding and slicing at 5 µm thickness. The sections were stained with hematoxylin and eosin (Beyotime, China) and observed with an Olympus BX51 microscope, and the data were processed by CaseViewer 2.4 software. For immunohistochemistry analysis, the fixed tissues were dehydrated in 30% sucrose, embedded in Optimal Cutting Temperature compound, frozen with liquid nitrogen, and cryosliced at 10 µm thickness. […]

A further data set relates to HSP90α. Conditions: targets the N-terminal of HSP90α; cited from earlier work.
Where [1] appears, read: 1 mg/kg oral, once, 0 to 7 days post-infection.
[2] abbreviates: oral, once at 2 h p.i., 24 h p.i., 1 × 10^6 PFU SA11.

As for `COc1cccc(-c2cc(F)ccc2[C@H]2Cc3nc(N)nc(C)c3C(=O)N2)n1` [NVP-HSP990], the CC50 (in general, the concentration at which the toxic effect on the cells reaches its halfway point) with MA104 cells was above 100000 nM. In the data set on RV SA11 strain (setting [1]), the “body growth of RV-infected suckling mice” value was “did not hinder” and the “diarrhea of RV-infected suckling mice” value is “significantly alleviated”. Besides, in the data set on RV SA11 strain (SA11-infected mice, 1 mg/kg oral, 16 h p.i., hematoxylin/eosin), the “RV-induced foamy degeneration in the ileal epithelium” value is “markedly attenuated”. In the data set on RV SA11 strain (duodenum, 1 mg/kg oral, 16 h p.i.), the “infectious RV particles and viral antigens in intestinal contents, transcription of RV VP6 in intestinal epithelial cells” value is “no significant differences”. The “infectious RV particles and viral antigens in intestinal contents, transcription of RV VP6 in intestinal epithelial cells” value with RV SA11 strain (jejunum and ileum, 1 mg/kg oral, 16 h p.i.) is listed as “remarkably reduced”. Further, the “pathological changes in the ileum” value with RV SA11 strain (mock-infected mice, NVP-HSP990 treatment alone, 1 mg/kg oral, hematoxylin/eosin) is listed as “no appreciable pathological changes”. In the data set with RV SA11 strain (setting [2]), the “ED50 for RV diarrhea occurrence” value worked out at 0.1423 mg/kg and the “ED50 for diarrhea score reduction” value worked out at 0.1355 mg/kg. Besides, the half-inhibitory concentration (IC50) (in general, the concentration at which inhibition is half-maximal) in the data set with HSP90α is 0.6 nM.
